Tests used:
[1] = test system: AKT phosphorylation in MDA-MB-468 Luc cells; test: Immunoblotting; format: cell-based; details: 10^-5 M, 1 h
Protocol: (§1) Figure 5 A41 decreases growth and invasiveness of TNBC cells in vitro (A) Representative images of RAC-GTP levels (red) in MDA-MB-468 Luc cells in the absence (CTL) and presence of EHT1864, NSC23766, or A41 (1 h at 10 μM) (left). Luciferase (Luc, green) was used to detect the cells. RAC-GTP mean fluorescence intensity was quantified inside the cell area (right) (n = 31–37 cells from 3 independent experiments; ∗p < 0.05, ∗∗∗p < 0.001) (scale bars: 10 μm). […] (C) Quantification of colony number of indicated cancer cell lines in the presence of A41 (10 μM) expressed as the percentage of control in the absence of A41. Results shown are representative of N > 3 independent experiments. (D) Immunoblot analysis and corresponding quantification of AKT and P44/42 expression and phosphorylation (pAKT, p44/42) in MDA-MB-468 Luc cells in the absence (−) and presence of NSC23766 or A41 (1 h at 10^−5 M). […] (E) 3D invasion assay of MDA-MB-468 Luc and cancer-associated fibroblasts (CAFs) and corresponding quantification (scale bars: 200 μm). […]
(§2) After indicated treatments, MDA-MB-468Luc cells were incubated on ice with lysis buffer supplemented with proteases and phosphatases inhibitor cocktails (Sigma Aldrich, Saint Quentin Fallavier, France) and sodium orthovanadate. […] Protein band intensities were quantified using ImageJ Software (NIH software, Bethesda, Md).

[2] = test system: p44/42 phosphorylation in MDA-MB-468 Luc cells; test: Immunoblotting; format: cell-based; details: 10^-5 M, 1 h
Protocol: as §1, §2

[3] = target: Peptidase, Angiotensin Converting Enzyme (Oryctolagus cuniculus, UniProt P12822); test: Safety screen; format: biochemical, rabbit
Peptidase, Angiotensin Converting Enzyme, sequence (P12822 34-1310): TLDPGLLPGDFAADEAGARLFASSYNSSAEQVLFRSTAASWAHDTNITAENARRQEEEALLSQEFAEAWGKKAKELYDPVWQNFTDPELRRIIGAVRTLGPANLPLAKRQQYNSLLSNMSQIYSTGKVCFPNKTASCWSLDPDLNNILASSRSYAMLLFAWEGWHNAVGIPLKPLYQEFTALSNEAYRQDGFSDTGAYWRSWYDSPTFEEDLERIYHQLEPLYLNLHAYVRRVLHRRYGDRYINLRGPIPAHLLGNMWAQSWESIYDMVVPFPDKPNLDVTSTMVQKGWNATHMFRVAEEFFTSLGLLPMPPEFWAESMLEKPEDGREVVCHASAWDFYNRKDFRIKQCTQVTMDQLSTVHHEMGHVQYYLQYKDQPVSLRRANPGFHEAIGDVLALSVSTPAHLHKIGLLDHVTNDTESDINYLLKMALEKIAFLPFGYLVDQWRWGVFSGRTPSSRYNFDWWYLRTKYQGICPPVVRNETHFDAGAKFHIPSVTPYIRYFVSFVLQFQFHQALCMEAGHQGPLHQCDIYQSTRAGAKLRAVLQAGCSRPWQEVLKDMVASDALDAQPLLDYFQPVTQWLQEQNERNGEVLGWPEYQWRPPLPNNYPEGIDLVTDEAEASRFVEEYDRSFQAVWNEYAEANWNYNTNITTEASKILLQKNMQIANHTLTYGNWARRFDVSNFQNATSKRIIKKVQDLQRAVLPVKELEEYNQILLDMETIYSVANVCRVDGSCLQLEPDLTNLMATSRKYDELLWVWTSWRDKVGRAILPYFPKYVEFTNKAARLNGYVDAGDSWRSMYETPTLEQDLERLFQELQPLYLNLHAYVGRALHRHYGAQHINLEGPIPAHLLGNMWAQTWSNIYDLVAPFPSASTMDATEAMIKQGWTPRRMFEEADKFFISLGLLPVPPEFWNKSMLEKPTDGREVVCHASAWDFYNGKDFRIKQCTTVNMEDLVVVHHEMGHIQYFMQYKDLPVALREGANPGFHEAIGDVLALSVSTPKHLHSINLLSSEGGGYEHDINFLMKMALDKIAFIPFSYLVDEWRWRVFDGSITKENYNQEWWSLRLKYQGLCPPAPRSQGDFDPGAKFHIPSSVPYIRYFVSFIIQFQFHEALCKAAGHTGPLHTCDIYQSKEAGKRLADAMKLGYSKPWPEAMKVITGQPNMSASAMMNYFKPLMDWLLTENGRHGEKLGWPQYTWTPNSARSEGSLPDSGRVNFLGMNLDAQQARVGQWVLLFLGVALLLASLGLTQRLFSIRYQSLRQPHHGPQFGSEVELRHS
Protocol: (§3) Blood cell counts, kinase profiler, safety screen, bacterial cytotoxicity, Ames, micronucleus assays were performed by the company Eurofins (France).

Muscarinic M1 = Muscarinic M1 (Homo sapiens, UniProt P11229); test: Safety screen; format: binding
Protocol: as §3

[4] = target: Platelet Activating Factor (PAF) (Homo sapiens, UniProt P25105); test: Safety screen; format: binding
Protocol: (§4) Blood cell counts, kinase profiler, safety screen, bacterial cytotoxicity, Ames, micronucleus assays were performed by the company Eurofins (France). The kinase profiler was performed by the company Eurofins (Discovery, Panlab and Cerep).

Potassium Channel hERG = Potassium Channel hERG (Homo sapiens, UniProt Q12809); test: Safety screen; format: binding
Potassium Channel hERG, sequence (Q12809 whole entry): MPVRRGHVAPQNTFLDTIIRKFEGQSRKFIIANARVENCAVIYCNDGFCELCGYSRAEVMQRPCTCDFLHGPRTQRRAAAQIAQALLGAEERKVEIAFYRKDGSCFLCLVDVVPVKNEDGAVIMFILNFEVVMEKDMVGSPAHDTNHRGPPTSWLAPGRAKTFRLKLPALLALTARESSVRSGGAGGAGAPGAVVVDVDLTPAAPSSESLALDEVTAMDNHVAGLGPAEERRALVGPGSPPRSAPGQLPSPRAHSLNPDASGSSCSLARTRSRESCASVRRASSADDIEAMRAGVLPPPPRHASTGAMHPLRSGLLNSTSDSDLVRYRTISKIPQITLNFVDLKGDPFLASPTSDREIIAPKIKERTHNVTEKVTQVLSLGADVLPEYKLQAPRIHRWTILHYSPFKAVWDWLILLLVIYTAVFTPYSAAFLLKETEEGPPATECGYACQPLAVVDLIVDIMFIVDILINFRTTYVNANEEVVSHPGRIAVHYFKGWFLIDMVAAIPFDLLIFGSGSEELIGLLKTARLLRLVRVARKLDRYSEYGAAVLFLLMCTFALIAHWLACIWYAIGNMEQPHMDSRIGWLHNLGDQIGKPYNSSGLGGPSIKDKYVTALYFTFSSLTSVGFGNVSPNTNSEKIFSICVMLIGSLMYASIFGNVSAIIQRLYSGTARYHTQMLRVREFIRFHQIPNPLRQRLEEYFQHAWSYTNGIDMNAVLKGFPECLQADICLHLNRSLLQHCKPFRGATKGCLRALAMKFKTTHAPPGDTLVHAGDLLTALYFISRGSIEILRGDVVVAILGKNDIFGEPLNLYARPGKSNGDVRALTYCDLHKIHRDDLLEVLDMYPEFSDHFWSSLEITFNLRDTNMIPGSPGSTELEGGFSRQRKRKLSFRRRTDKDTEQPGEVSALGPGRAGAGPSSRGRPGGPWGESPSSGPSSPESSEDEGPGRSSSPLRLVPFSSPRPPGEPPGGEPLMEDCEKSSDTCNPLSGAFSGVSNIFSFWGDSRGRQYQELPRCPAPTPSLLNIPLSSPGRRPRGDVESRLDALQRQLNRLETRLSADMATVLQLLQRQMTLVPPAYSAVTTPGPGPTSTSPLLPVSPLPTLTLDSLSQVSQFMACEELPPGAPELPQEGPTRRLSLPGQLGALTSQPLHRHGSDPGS
Protocol: as §4

[5] = target: Serotonin (5-Hydroxytryptamine) 5-HT1A (Homo sapiens, UniProt P08908); test: Safety screen; format: binding
Protocol: as §4

Arg(h) = Arg(h) (Homo sapiens, UniProt P42684); test: Kinase Profiler; format: biochemical
Protocol: as §4

CDK16/cyclinY(h) = CDK16/cyclinY(h) (Homo sapiens, UniProt Q00536); test: Kinase Profiler; format: biochemical
CDK16/cyclinY(h), sequence (Q00536 whole entry): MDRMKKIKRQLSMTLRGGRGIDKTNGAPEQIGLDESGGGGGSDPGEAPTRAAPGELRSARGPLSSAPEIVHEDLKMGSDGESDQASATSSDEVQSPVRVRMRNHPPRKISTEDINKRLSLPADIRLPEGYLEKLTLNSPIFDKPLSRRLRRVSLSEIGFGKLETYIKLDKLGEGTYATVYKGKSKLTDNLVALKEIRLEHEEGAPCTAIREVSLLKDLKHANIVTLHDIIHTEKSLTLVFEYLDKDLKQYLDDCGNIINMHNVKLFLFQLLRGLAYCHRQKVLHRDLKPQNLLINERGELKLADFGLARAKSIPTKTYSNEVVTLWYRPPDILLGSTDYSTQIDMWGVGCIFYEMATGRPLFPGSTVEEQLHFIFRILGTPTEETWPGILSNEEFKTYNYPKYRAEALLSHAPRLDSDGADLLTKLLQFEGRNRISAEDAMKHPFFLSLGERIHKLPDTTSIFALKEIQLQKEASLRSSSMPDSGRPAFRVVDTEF
CDK16/cyclinY(h), sequence (Q8ND76 whole entry partner): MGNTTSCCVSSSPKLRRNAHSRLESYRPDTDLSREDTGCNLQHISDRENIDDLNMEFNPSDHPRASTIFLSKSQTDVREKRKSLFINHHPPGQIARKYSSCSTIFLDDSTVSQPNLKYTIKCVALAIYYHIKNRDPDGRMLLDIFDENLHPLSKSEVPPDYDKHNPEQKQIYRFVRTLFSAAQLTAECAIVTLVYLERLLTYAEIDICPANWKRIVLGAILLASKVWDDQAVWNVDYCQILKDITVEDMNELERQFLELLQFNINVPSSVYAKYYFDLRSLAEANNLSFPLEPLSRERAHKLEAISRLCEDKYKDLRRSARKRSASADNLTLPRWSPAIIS
Protocol: as §4

CHK2(I157T)(h) = CHK2(I157T)(h) (Homo sapiens, UniProt O96017, I157T); test: Kinase Profiler; format: biochemical
Protocol: (§5) The kinase profiler was performed by the company Eurofins (Discovery, Panlab and Cerep).

DAPK2(h) = DAPK2(h) (Homo sapiens, UniProt Q9UIK4); test: Kinase Profiler; format: biochemical
DAPK2(h), sequence (Q9UIK4 whole entry): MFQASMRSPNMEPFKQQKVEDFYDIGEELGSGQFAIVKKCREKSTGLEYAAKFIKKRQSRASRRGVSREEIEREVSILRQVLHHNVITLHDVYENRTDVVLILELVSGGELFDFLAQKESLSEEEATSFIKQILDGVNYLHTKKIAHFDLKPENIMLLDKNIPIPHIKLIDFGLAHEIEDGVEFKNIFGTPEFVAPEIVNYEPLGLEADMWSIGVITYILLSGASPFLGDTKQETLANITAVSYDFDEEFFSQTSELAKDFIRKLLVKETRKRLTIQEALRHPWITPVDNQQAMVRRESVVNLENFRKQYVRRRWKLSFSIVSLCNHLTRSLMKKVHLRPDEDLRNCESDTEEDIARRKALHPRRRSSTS
Protocol: as §4

FGFR2(h) = FGFR2(h) (Homo sapiens, UniProt P21802); test: Kinase Profiler; format: biochemical
Protocol: as §5

Flt3(D835Y)(h) = Flt3(D835Y)(h) (Homo sapiens, UniProt P36888, D835Y); test: Kinase Profiler; format: biochemical
Protocol: as §5

GRK5(h) = GRK5(h) (Homo sapiens, UniProt P34947); test: Kinase Profiler; format: biochemical
Protocol: as §4

IRE1(h) = IRE1(h) (Homo sapiens, UniProt O75460); test: Kinase Profiler; format: biochemical
Protocol: as §4

Lck(h) activated = Lck(h) activated (Homo sapiens, UniProt P06239); test: Kinase Profiler; format: biochemical
Protocol: as §5

LIMK2(h) = LIMK2(h) (Homo sapiens, UniProt P53671); test: Kinase Profiler; format: biochemical
LIMK2(h), sequence (P53671 whole entry): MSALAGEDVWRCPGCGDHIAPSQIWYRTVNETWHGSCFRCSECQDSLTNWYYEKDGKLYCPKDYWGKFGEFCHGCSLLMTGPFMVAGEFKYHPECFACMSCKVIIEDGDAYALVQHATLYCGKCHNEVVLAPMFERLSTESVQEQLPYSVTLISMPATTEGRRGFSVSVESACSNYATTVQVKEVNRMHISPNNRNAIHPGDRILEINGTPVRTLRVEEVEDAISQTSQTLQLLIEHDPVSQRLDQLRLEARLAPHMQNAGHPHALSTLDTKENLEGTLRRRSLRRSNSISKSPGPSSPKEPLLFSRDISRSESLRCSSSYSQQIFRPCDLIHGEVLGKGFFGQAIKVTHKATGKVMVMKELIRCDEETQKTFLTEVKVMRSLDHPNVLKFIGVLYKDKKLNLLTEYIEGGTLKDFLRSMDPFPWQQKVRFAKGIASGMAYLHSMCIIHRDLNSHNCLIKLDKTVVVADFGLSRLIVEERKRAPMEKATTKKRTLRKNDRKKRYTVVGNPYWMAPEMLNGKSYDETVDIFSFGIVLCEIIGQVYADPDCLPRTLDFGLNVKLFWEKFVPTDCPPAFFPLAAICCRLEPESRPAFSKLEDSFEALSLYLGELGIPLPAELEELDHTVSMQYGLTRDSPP
Protocol: as §5

Lyn(m) = Lyn(m) (Mus musculus, UniProt P25911); test: Kinase Profiler; format: biochemical
Protocol: as §5

MAPK1(h) = MAPK1(h) (Homo sapiens, UniProt P27361); test: Kinase Profiler; format: biochemical
Protocol: as §5

Met(Y1248C)(h) = Met(Y1248C)(h) (Homo sapiens, UniProt P08581, Y1230C); test: Kinase Profiler; format: biochemical
Protocol: as §5

MST1(h) = MST1(h) (Homo sapiens, UniProt Q13043); test: Kinase Profiler; format: biochemical
Protocol: as §4

NEK2(h) = NEK2(h) (Homo sapiens, UniProt P51955); test: Kinase Profiler; format: biochemical
Protocol: as §5

Pim-2(h) = Pim-2(h) (Homo sapiens, UniProt Q9P1W9); test: Kinase Profiler; format: biochemical
Protocol: as §4

PKD2(h) = PKD2(h) (Homo sapiens, UniProt Q9BZL6); test: Kinase Profiler; format: biochemical
Protocol: as §5

SGK(h) = SGK(h) (Homo sapiens, UniProt O00141); test: Kinase Profiler; format: biochemical
Protocol: as §5

Tec(h) activated = Tec(h) activated (Homo sapiens, UniProt P42680); test: Kinase Profiler; format: biochemical
Tec(h) activated, sequence (P42680 whole entry): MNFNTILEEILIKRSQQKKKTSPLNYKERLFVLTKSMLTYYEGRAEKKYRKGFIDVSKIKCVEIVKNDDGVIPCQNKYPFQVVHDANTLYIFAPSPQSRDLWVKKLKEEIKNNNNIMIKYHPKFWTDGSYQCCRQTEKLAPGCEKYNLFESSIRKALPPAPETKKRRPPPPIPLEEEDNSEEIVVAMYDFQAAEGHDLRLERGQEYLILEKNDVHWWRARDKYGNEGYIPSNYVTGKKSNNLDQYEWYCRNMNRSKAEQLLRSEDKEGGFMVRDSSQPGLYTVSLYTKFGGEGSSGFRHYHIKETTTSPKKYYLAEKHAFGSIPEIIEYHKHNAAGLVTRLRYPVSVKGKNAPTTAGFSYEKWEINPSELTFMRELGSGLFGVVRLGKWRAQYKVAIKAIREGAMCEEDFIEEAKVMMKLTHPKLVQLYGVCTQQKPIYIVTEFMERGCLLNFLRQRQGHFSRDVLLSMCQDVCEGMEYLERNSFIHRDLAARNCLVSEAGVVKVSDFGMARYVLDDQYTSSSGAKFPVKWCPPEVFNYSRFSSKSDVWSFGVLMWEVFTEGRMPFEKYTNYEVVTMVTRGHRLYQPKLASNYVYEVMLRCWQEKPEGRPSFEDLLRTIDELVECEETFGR
Protocol: as §4

TSSK4(h) = TSSK4(h) (Homo sapiens, UniProt Q6SA08); test: Kinase Profiler; format: biochemical
Protocol: as §5

PI3K (p120g)(h) = PI3K (p120g)(h) (Homo sapiens, UniProt P48736); test: Kinase Profiler; format: biochemical
Protocol: as §4

`COc1ccc(OC)c(NS(=O)(=O)c2ccc(NC(=O)CCSc3ccc(C)cc3)cc2)c1` [Compound A41] was tested, and the “hyperactivation of AKT” value [1] was “reduced”, the p44/42 activation [2] was “unchanged” and the “% inh.” value [3] was 11%. The “% inh.” value (Muscarinic M1) was 11%, the “% inh.” value [4] was 78% and the “% inh.” value (Potassium Channel hERG) was 22%. For the same compound, the “% inh.” value [5] was 6%, the “Activity(%)” value (Arg(h)) was 122% and the “Activity(%)” value (CDK16/cyclinY(h)) was 107%. For the same compound, the “Activity(%)” value (CHK2(I157T)(h)) was 112%, the “Activity(%)” value (DAPK2(h)) was 99% and the “Activity(%)” value (FGFR2(h)) was 89%. The “Activity(%)” value (Flt3(D835Y)(h)) was 101%, the “Activity(%)” value (GRK5(h)) was 101% and the “Activity(%)” value (IRE1(h)) was 101%. The “Activity(%)” value (Lck(h) activated) was 90%, the “Activity(%)” value (LIMK2(h)) was 115% and the “Activity(%)” value (Lyn(m)) was 110%. For the same compound, the “Activity(%)” value (MAPK1(h)) was 103%, the “Activity(%)” value (Met(Y1248C)(h)) was 118% and the “Activity(%)” value (MST1(h)) was 96%. The “Activity(%)” value (NEK2(h)) was 118%, the “Activity(%)” value (Pim-2(h)) was 110% and the “Activity(%)” value (PKD2(h)) was 100%. The “Activity(%)” value (SGK(h)) was 116%, the “Activity(%)” value (Tec(h) activated) was 112% and the “Activity(%)” value (TSSK4(h)) was 103%. The “Activity(%)” value (PI3K (p120g)(h)) was 104%.

From publication PMC12281424, “A Rac-specific competitive inhibitor of guanine nucleotide binding reduces metastasis in triple-negative breast cancer” (Cell Reports Medicine, 2025)
